Reference: patent US8981094B2, “Piperidine/piperazine derivatives” (Janssen Pharmaceutica N.V., priority 2007, dated 2015)
pIC50: −log10 of the molar value.

Experiments:
human DGAT1 = molecular target: T1, human DGAT1 (Homo sapiens, UniProt O75907); test: Inhibition of DGAT1 activity, FlashPlate assay with DGAT1 membrane preparations and substrate micelles; type: biochemical; conditions: pIC50 = -logIC50, IC50 values expressed in M
T1 construct: FLAG (N); made in house; host or cells: SF9 insect cells (pFastBac baculovirus); total cell membranes
T1 sequence (O75907 1-488): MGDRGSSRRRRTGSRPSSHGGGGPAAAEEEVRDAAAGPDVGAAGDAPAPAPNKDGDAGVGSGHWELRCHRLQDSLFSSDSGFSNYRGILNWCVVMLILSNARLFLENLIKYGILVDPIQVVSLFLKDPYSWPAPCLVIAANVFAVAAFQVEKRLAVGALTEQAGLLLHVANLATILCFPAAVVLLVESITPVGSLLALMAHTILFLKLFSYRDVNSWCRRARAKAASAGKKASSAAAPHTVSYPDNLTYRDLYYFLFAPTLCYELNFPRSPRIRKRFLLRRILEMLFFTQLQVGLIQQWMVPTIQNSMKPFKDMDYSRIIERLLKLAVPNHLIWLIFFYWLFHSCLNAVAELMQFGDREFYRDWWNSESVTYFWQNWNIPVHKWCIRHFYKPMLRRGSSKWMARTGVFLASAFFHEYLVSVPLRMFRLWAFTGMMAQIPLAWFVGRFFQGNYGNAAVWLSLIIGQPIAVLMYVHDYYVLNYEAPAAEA
Outline: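 FLAG-tagged human DGAT1 membranes (expressed in Sf9 cells) were incubated 120 min at 37° C. in 50 mM Tris-HCl pH 7.4 with 150 mM MgCl2, 1 mM EDTA, 0.2% BSA, 50 μM DAG micelles (PC/PS) and 8.4 μM [^3H]-oleoylCoA. The reaction was stopped with N-ethylmaleimide and read as FlashPlate radioluminescence. Responses were normalized to enzyme/no-enzyme controls to fit dose-response curves.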

GLP-1 plasma levels = test: In vivo study for effect of test compound on GLP-1 plasma levels (postprandial profile); conditions: dogs fasted 22 hours, liquid meal 18% fat, compound given orally with the meal; compared with own profile without compound; compound 223 at 0.3 mg/kg in FIG. 1
Description: B) In Vivo Study for Effect of Test Compound on GLP-1 Plasma Levels
Elevation of GLP-1 plasma levels by a DGAT inhibitor was studied as follows:
(§1) Dogs were deprived from food for a period of 22 hours. At time 0, animals were given a liquid meal, containing 18% fat (w/w), by gavage with a stomach tube. The test compound was given orally together with the meal. Afterwards, a postprandial plasma profile was determined for GLP-1. Therefore, blood was collected at predetermined time intervals in ice-cooled Vacutainers EDTA-plasma tubes and GLP-1 levels were measured in the samples taken at 0 hour (just before the meal) and at 0.5, 1, 2, 4, 6, 8 and 24 hours after dosing. Six dogs (3 males and 3 females) were included per dosage group and the plasma GLP-1 profile was compared with their own GLP-1 profile previously determined in the same conditions but without administration of the test compound.
GLP-1 determinations in plasma were performed with a Glucagon-like peptide-1 (active) ELISA kit 96-well plate of LINCO Research.

[1] = tested on: plasma triglyceride levels; test: Plasma triglyceride profile after liquid fat meal in dogs; type: in vivo; conditions: liquid meal 18% fat, compound given orally, compared with own profile without compound
Description: as §1
In addition to the plasma GLP-1 profile, also the plasma triglyceride profile can be determined and compared with their own triglyceride profile previously determined in the same conditions but without administration of the test compound. After administration of compound 223, triglyceride levels decreased.

SMILES	pIC50 (human DGAT1)	GLP-1 plasma levels (postprandial plasma profile) (GLP-1 plasma levels)	melting point	plasma triglyceride levels (profile) [1]
CNC(C)c1cc(Cl)c(NC(=O)N2CCN(c3ccc(NC(=O)CCCc4ccccc4)cc3)CC2)c(Cl)c1 (stereo not shown) [Compound 24]	7.80	increase GLP-1 levels	180.7 °C	–
O=C(CCCc1ccccc1)Nc1ccc(N2CCN(C(=O)Nc3c(Cl)cc(O)cc3Cl)CC2)cc1 [Compound 30]	8.35	increase GLP-1 levels	175.4 °C	–
COc1ccc(CC(=O)Nc2ccc(N3CCN(C(=O)Nc4c(Cl)cc(CN5CCCC5)cc4Cl)CC3)cc2)cc1 [Compound 223]	7.70	increase GLP-1 levels	252.22 °C	decreased
CCOC(=O)CCCC(=O)Nc1ccc(N2CCN(C(=O)Nc3c(Cl)cc(CN4CCCC4)cc3Cl)CC2)cc1 [Compound 322]	7.04	–	208.65 °C	–
COC(=O)c1cc(Cl)c(NC(=O)N2CCC(c3ccc(NC(=O)CCCc4ccccc4)cc3)CC2)c(Cl)c1 [Compound 324]	6.97	–	204 to 205 °C	–
O=C(CCC(O)c1ccccc1)Nc1ccc(N2CCN(C(=O)Cc3c(Cl)cccc3Cl)CC2)cc1 (stereo not shown) [Compound 333]	6.45	–	200.57 °C	–
CC(O)c1cc(Cl)c(NC(=O)N2CCN(c3ccc(N(C)C(=O)CCCc4ccccc4)cc3)CC2)c(Cl)c1 (stereo not shown) [Compound 335]	6.32	–	179.55 °C	–
O=C(CCCc1ccccc1)Nc1ccc(N2CCN(C(=O)Cc3ccccc3)CC2)cc1 [Compound 338]	5.59	–	146.12 °C	–
O=C(CCCc1ccccc1)Nc1ccc(N2CCN(C(=O)Nc3ccccc3)CC2)cc1 [Compound 339]	5.51	–	219.91 °C	–
